Test results taken from patent US11453671B2, “Pyrazolopyrimidine inhibitors of JAK kinases and uses thereof” (Genentech, Inc., priority 2020, dated 2022).
Read-outs that look alike come from different tables or passages of the source.

What was measured:
[1] = Cell cytotoxicity assay Jurkat (CellTiter-Glo, 72 hours); assay type: cell-based; details: human, Jurkat clone E6-1 cells, Table 3; 72 hours, top concentration of 50 μM; read-out: Cytotox Jurkat EC50
Description: (§1) Cytotoxicity assays. Hepatocyte toxicity, general cytotoxicity or cytotoxicity of unknown mechanism is an undesirable feature for a potential drug, including inhaled drugs. It may be of benefit for an inhaled JAK1 or JAK1/JAK2 inhibitor to have low intrinsic cytotoxicity against various cell types. Typical cell types used to assess cytotoxicity include both primary cells such as human hepatocytes, and proliferating established cell lines such as Jurkat and HEK-293. […] Methods of measuring cytotoxicity are known in the art. In some embodiments, compounds described herein were tested as follows:
(§2) (a) Jurkat and HEK293T cells were maintained at a sub confluent density in T175 flasks. Cells were plated at 450 cells/45 μl medium in Greiner 384 well black/clear tissue culture treated plates. (Greiner Catalog #781091). After dispensing cells, plates were equilibrated at room temperature for 30 minutes. After 30 minutes at room temperature, cells were incubated overnight at 37° C. in a CO2 and humidity controlled incubator. The following day, cells were treated with compounds diluted in 100% DMSO (final DMSO concentration on cells=0.5%) with a 10 point dose-response curve with a top concentration of 50 μM. Cells and compounds were then incubated for 72 hours overnight at 37° C. in a CO2 and humidity controlled incubator. After 72 hours of incubation, viability was measured using CellTiterGlo® (Promega Catalog #G7572) to all wells. After incubation at room temperature for 20 minutes, plates were read on EnVision™ (Perkin Elmer Life Sciences) using luminescence mode;
(§3) A549 (ATCC® CCL-185™), Jurkat clone E6-1 (ATCC® TIB-152™) and HEK-293T (ATCC® CRL-1573™) cells maintained at a sub-confluent density in T175 flasks were used. Cells in exponential growth phase were plated (450 cells in 45 μL of medium) in Greiner 384-well black/clear tissue culture treated plates (Greiner Catalog No. 781091). After dispensing cells, plates were allowed to equilibrate at room temperature for 30 minutes, after which time the cell plates were placed overnight in a 37° C. CO2 and humidity-controlled incubator. The following day, cells were treated with test agent diluted in 100% DMSO (0.5% final DMSO concentration on cells) with a 10-point titration and a top concentration of 50 μM. Cells and compounds were then incubated for 72 hours in a 37° C. CO2 and humidity-controlled incubator, after which time cell viability was measured by adding CellTiter-Glo® (Promega G7572) reagent to all wells. Plates were incubated at room temperature for 20 minutes and then the well luminescence was read on an EnVision plate reader (Perkin Elmer Life Sciences).

[2] = biological target: T1, recombinant human JAK1 kinase domain protein (Residues 854-1154) (Homo sapiens, UniProt P23458); experiment: JAK1 biochemical assay (microfluidic mobility shift, peptide phosphorylation); details: 25 μM ATP, 1 nM total JAK1; read-out: Enzyme JAK1 Ki
T1 construct: human JAK1 kinase domain protein (Residues 854-1154); purchased Proteros Biostructures GmbH (Martinsried, Germany); host or cells: insect cells
T1 sequence (P23458 854-1154): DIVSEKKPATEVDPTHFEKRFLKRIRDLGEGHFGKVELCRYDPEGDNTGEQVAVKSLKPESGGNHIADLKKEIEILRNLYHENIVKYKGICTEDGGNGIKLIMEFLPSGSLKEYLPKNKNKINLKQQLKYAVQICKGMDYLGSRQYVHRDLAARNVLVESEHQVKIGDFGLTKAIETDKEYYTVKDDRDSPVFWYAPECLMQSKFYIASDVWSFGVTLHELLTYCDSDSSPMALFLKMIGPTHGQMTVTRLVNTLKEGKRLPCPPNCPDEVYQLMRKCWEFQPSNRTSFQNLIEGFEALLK
Description: JAK1 and JAK2 Biochemical Assays

[3] = tested on: JAK1 pathway: P-STAT6 in TF-1 human erythroleukemia cells + IL-13; experiment: P-STAT6 TF-1+Interleukin-13 (IL-13) assay; assay type: cell-based; details: IL-13 stimulation, read-out: Cellular JAK1 PSTAT6 TF-1 + IL13 IC50
Description: (§4) TF-1 human erythroleukemia cells (ATCC®; Manassas, Va.; Catalog No. CRL-2003™) were grown in Roswell Park Memorial Institute (RPMI) medium supplemented with 10% heat-inactivated fetal bovine serum (FBS), 2 ng/mL granulocyte-macrophage colony-stimulating factor, 1×non-essential amino acids (NEAA), and 1 mM sodium pyruvate. The day before the assay, the cultures were transferred to Opti-MEM™, 1×NEAA, 1 mM sodium pyruvate, and 0.5% charcoal-stripped FBS (starve medium). Inhibitor stock solutions (5 mM in DMSO) were serially diluted 1:2 in DMSO to generate a 10-point concentration titration (at 500×test concentration), which was further diluted by a 50-fold dilution in Assay Medium (RPMI containing 1×NEAA and 1 mM sodium pyruvate) to generate a 10×concentration titration (in 2% DMSO). The cells (300,000 cells/well in 35 μL of Assay Medium) were seeded in 384-well Greiner plates. Diluted inhibitor at 10×concentration (5 μL) was added to the cells and the plates were incubated for 30 minutes at 37° C. in a humidified incubator. Cells were stimulated with the human recombinant cytokine at the respective EC90 concentrations, as previously determined for each individual lot. For the phosphorylated signal transducer and activator of transcription 6 (P-STAT6) TF-1+Interleukin-13 (IL-13) assay, 10 μL of 250 ng/mL IL-13 (R&D Systems; Minneapolis, Minn.) was added to the cells, which were then incubated for 10 minutes at 37° C. For the P-STAT5 TF-1+Erythropoietin (EPO) assay, 10 μL of 110 IU/mL EPO (Gibco Life Technologies, Catalog No. PHC2054) was added to the cells, which were then incubated for 30 min at 37° C. For both assays, the incubation was followed by addition to the cells of 5 μL of ice-cold 10× cell lysis buffer (Cell Signaling Technologies; Danvers, Mass.; Catalog No. 9803S) containing 1 mM phenylmethylsulfonyl fluoride (PMSF). Assay plates were frozen at −80° C. for a minimum of 1 horn. In the IL-13 assay, P-STAT6 was measured by coating goat anti-rabbit (GAR) plates (Meso Scale Discovery [MSD]; Rockville, Md.; Catalog No. MSD L21RA-1) with rabbit anti-human total STAT6 antibody (Cell Signaling Technologies; Catalog No. 9362S), incubating the cell lysates in the coated plates overnight at 4° C., and then detecting with mouse anti-P-STAT6 (Tyr641) Clone 16E12 antibody (MilliporeSigma; Burlington, Mass.; Catalog No. 05-590, custom labeled by MSD with SULFO-tag) using standard MSD plate processing, washing, and detection protocols. In the EPO assay, P-STAT5 was detected using the phospho-STAT5a,b Whole Cell Lysate Kit (MSD; Catalog No. K150IGD-1). The electrochemiluminescence (ECL) signal of wells was read on the MESO SECTOR S600 (MSD) reader.

[4] = Cell cytotoxicity assay HEK-293T (CellTiter-Glo, 72 hours); assay type: cell-based; details: human, HEK-293T cells, Table 3; 72 hours, top concentration of 50 μM; read-out: Cytotox K-293 EC50
Description: as §1, §2, §3

[5] = tested on: JAK2 pathway: P-STAT5 in TF-1 human erythroleukemia cells + EPO; experiment: P-STAT5 TF-1+Erythropoietin (EPO) assay; assay type: cell-based; details: EPO stimulation, read-out: Cellular JAK2 PSTAT5 TF-l + EPO IC50
Description: as §4

[6] = biological target: Recombinant human JAK2 kinase domain protein (Residues 812-1132) (Homo sapiens, UniProt O60674); experiment: JAK2 biochemical assay (microfluidic mobility shift, peptide phosphorylation); details: Enzyme JAK2 Ki (nM), 25 μM ATP, 0.2 nM total JAK2
Recombinant human JAK2 kinase domain protein (Residues 812-1132), sequence (O60674 812-1132): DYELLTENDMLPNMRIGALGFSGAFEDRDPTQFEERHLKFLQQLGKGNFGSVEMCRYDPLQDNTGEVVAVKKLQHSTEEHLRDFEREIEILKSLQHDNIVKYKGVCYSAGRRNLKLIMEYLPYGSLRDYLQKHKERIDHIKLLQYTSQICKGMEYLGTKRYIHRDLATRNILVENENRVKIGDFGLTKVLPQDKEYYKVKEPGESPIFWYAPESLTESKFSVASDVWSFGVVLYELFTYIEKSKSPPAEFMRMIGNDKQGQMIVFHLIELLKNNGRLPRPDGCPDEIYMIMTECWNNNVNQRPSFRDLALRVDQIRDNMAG

## Cn1cc(NC(=O)c2cnn3cccnc23)c(-c2cc(S(=O)(=O)C3CCCNC3)ccc2OC(F)F)n1 (single isomer, unassigned) [Example 37, N-[3-[2-(difluoromethoxy)-5-(3-piperidylsulfonyl)phenyl]-1-methyl-pyrazol-4-yl]pyrazolo[1,5-a]pyrimidine-3-carboxamide]
[1]
  EC50 at 72 h: ≥ 50000 nM
[2]
  Ki: 0.69 nM
[3]; TF-1 cells
  IC50: 51 nM
[4]
  EC50 at 72 h: 31000 nM
[5]; TF-1 cells
  IC50: 38 nM
[6]
  Ki: 0.54 nM

## C[C@@H](O)CS(=O)(=O)c1ccc(OC(F)F)c(-c2nn(C)cc2NC(=O)c2cnn3cccnc23)c1 (stereo in doubt) [Example 25, N-[3-[2-(difluoromethoxy)-5-[rac-(2R)-2-hydroxypropyl]sulfonyl-phenyl]-1-methyl-pyrazol-4-yl]pyrazolo[1,5-a]pyrimidine-3-carboxamide]
[1]
  EC50 at 72 h: ≥ 50000 nM
[2]
  Ki: 0.48 nM
[3]; Homo sapiens, TF-1, TF-1 cells
  IC50: 20 nM
[4]
  EC50 at 72 h: 48000 nM
[5]; Homo sapiens, TF-1, TF-1 cells
  IC50: 39 nM
[6]
  Ki: 0.2 nM

## Cn1cc(NC(=O)c2cnn3cccnc23)c(-c2cc(S(=O)(=O)C3CCC3)ccc2OC(F)F)n1 [Example 2, N-[3-[5-cyclobutylsulfonyl-2-(difluoromethoxy)phenyl]-1-methyl-pyrazol-4-yl]pyrazolo[1,5-a]pyrimidine-3-carboxamide]
[1]
  EC50 at 72 h: 38500 nM
[2]
  Ki: 0.5 nM
[3]; Homo sapiens, TF-1, TF-1 cells
  IC50: 14 nM
[4]
  EC50 at 72 h: 27500 nM
[5]; Homo sapiens, TF-1, TF-1 cells
  IC50: 12 nM
[6]
  Ki: 0.2 nM

## Cn1cc(NC(=O)c2cnn3cccnc23)c(-c2cc(S(=O)(=O)CCO)ccc2OC(F)F)n1 [Example 5, N-[3-[2-(difluoromethoxy)-5-(2-hydroxyethylsulfonyl)phenyl]-1-methyl-pyrazol-4-yl]pyrazolo[1,5-a]pyrimidine-3-carboxamide]
[1]
  EC50 at 72 h: 23000 nM
[2]
  Ki: 0.43 nM
[3]; Homo sapiens, TF-1, TF-1 cells
  IC50: 16 nM
[4]
  EC50 at 72 h: 10200 nM
[5]; Homo sapiens, TF-1, TF-1 cells
  IC50: 29 nM
[6]
  Ki: 0.19 nM

## CN(C)CCS(=O)(=O)c1ccc(OC(F)F)c(-c2nn(C)cc2NC(=O)c2cnn3cccnc23)c1 [Example 7, N-[3-[2-(difluoromethoxy)-5-[2-(dimethylamino)ethylsulfonyl]phenyl]-1-methyl-pyrazol-4-yl]pyrazolo[1,5-a]pyrimidine-3-carboxamide]
[1]
  EC50 at 72 h: 2100 nM
[2]
  Ki: 0.88 nM
[3]; Homo sapiens, TF-1, TF-1 cells
  IC50: 21 nM
[4]
  EC50 at 72 h: 6900 nM
[5]; Homo sapiens, TF-1, TF-1 cells
  IC50: 22 nM
[6]
  Ki: 0.49 nM

## COc1cccc(S(=O)(=O)c2ccc(OC(F)F)c(-c3nn(C)cc3NC(=O)c3cnn4cccnc34)c2)c1 [Example 12, N-[3-[2-(difluoromethoxy)-5-(3-methoxyphenyl)sulfonyl-phenyl]-1-methyl-pyrazol-4-yl]pyrazolo[1,5-a]pyrimidine-3-carboxamide]
[1]
  EC50 at 72 h: ≥ 50000 nM
[2]
  Ki: 0.24 nM
[3]; Homo sapiens, TF-1, TF-1 cells
  IC50: 8.7 nM
[4]
  EC50 at 72 h: 36000 nM
[5]; Homo sapiens, TF-1, TF-1 cells
  IC50: 9.1 nM
[6]
  Ki: 0.14 nM

## Cn1cc(NC(=O)c2cnn3cccnc23)c(-c2cc(S(=O)(=O)C3COC3)ccc2OC(F)F)n1 [Example 13, N-[3-[2-(difluoromethoxy)-5-(oxetan-3-ylsulfonyl)phenyl]-1-methyl-pyrazol-4-yl]pyrazolo[1,5-a]pyrimidine-3-carboxamide]
[1]
  EC50 at 72 h: ≥ 50000 nM
[2]
  Ki: 0.4 nM
[3]; Homo sapiens, TF-1, TF-1 cells
  IC50: 34 nM
[4]
  EC50 at 72 h: 31000 nM
[5]; Homo sapiens, TF-1, TF-1 cells
  IC50: 28 nM
[6]
  Ki: 0.19 nM

## Cn1cc(NC(=O)c2cnn3cccnc23)c(-c2cc(S(=O)(=O)C3CC3)ccc2OC(F)F)n1 [Example 22, N-[3-[5-cyclopropylsulfonyl-2-(difluoromethoxy)phenyl]-1-methyl-pyrazol-4-yl]pyrazolo[1,5-a]pyrimidine-3-carboxamide]
[1]
  EC50 at 72 h: ≥ 50000 nM
[2]
  Ki: 0.46 nM
[3]; Homo sapiens, TF-1, TF-1 cells
  IC50: 4.6 nM
[4]
  EC50 at 72 h: 43000 nM
[5]; Homo sapiens, TF-1, TF-1 cells
  IC50: 14 nM
[6]
  Ki: 0.19 nM

## CS(=O)(=O)c1ccc(OC(F)F)c(-c2nn(CC#N)cc2NC(=O)c2cnn3cccnc23)c1 [Example 28, N-[1-(cyanomethyl)-3-[2-(difluoromethoxy)-5-methylsulfonyl-phenyl]pyrazol-4-yl]pyrazolo[1,5-a]pyrimidine-3-carboxamide]
[1]
  EC50 at 72 h: 39000 nM
[2]
  Ki: 0.24 nM
[3]; Homo sapiens, TF-1, TF-1 cells
  IC50: 3.1 nM
[4]
  EC50 at 72 h: 24000 nM
[5]; Homo sapiens, TF-1, TF-1 cells
  IC50: 26 nM
[6]
  Ki: 0.14 nM

## Cn1cc(S(=O)(=O)c2ccc(OC(F)F)c(-c3nn(C)cc3NC(=O)c3cnn4cccnc34)c2)cn1 [Example 35, N-[3-[2-(difluoromethoxy)-5-(1-methylpyrazol-4-yl)sulfonyl-phenyl]-1-methyl-pyrazol-4-yl]pyrazolo[1,5-a]pyrimidine-3-carboxamide]
[1]
  EC50 at 72 h: 21000 nM
[2]
  Ki: 0.3 nM
[3]; Homo sapiens, TF-1, TF-1 cells
  IC50: 5.8 nM
[4]
  EC50 at 72 h: 17000 nM
[5]; Homo sapiens, TF-1, TF-1 cells
  IC50: 14 nM
[6]
  Ki: 0.19 nM

## Cn1cc(NC(=O)c2cnn3cccnc23)c(-c2cc(S(=O)(=O)c3ccccc3)ccc2OC(F)F)n1 [Example 40, N-[3-[5-(benzenesulfonyl)-2-(difluoromethoxy)phenyl]-1-methyl-pyrazol-4-yl]pyrazolo[1,5-a]pyrimidine-3-carboxamide]
[1]
  EC50 at 72 h: ≥ 50000 nM
[2]
  Ki: 0.21 nM
[3]; Homo sapiens, TF-1, TF-1 cells
  IC50: 3.1 nM
[4]
  EC50 at 72 h: ≥ 50000 nM
[5]; Homo sapiens, TF-1, TF-1 cells
  IC50: 6.4 nM
[6]
  Ki: 0.11 nM
